Results: ChEMBL document CHEMBL5647693, “Molecular basis underlying resistance to Mps1/TTK inhibitors” (Oncogene, 2016)

Key:
Test in all cases: cells
Assay type in all cases: functional, cell-based
U2OS = conditions: Homo sapiens, 120 h
HCT-116 [1] = conditions: Homo sapiens, HCT-116, 120 h
HCT-116 [2] = conditions: Homo sapiens, HCT-116, 120 h; remark: listed apart in the source
DLD-1 [3] = conditions: Homo sapiens, DLD-1, 120 h
DLD-1 [4] = conditions: Homo sapiens, DLD-1, 120 h; remark: listed apart in the source
HeLa [5] = conditions: Homo sapiens, 120 h
HCT-116 [6] = conditions: Homo sapiens, HCT-116, 120 h; remark: listed apart in the source
DLD-1 [7] = conditions: Homo sapiens, DLD-1, 120 h; remark: listed apart in the source
HeLa [8] = conditions: Homo sapiens, 120 h; remark: listed apart in the source
HeLa [9] = conditions: Homo sapiens, 120 h; remark: listed apart in the source
HeLa [10] = conditions: Homo sapiens, 120 h; remark: listed apart in the source
HCT-116 [11] = conditions: Homo sapiens, HCT-116, 120 h; remark: listed apart in the source

Structure (SMILES): c1nc2c(NC3CCCCC3)nc(Nc3ccc(N4CCOCC4)cc3)nc2[nH]1 [REVERSINE]
- IC50 (U2OS): 154 nM
- IC50 (HCT-116 [1]): 530 nM
- IC50 (HCT-116 [2]): 70 nM
- IC50 (DLD-1 [3]): 120 nM
- IC50 (DLD-1 [4]): > 2000 nM
- IC50 (HeLa [5]): 431 nM
- IC50 (HCT-116 [6]): 138 nM
- IC50 (DLD-1 [7]): 136 nM
- IC50 (HeLa [8]): 125 nM
- IC50 (HeLa [9]): 116 nM
- IC50 (HeLa [10]): 290 nM
- IC50 (HCT-116 [11]): 78.9 nM
